In patent US6057371A, “Sigma receptor ligands and the use thereof” (Virginia Commonwealth University, priority 1992, dated 2000):
Where two headings read alike, the source gives them in different places.

Assays:
sigma-2 binding site = target: T1, sigma-2 binding site (Cavia porcellus, UniProt H0V073); test: biochemical; design: species or system guinea pig; details: for IC50: Table 17, read-out: IC50 (nM) at sigma-2
T1 construct: Guinea pig whole membrane preparations (P2 microsomal fraction); from tissue; host or cells: guinea pig membranes (P2 microsomal fraction), as described by Weber et al; brain inferred from the sister test b489
T1 sequence (H0V073 1-176): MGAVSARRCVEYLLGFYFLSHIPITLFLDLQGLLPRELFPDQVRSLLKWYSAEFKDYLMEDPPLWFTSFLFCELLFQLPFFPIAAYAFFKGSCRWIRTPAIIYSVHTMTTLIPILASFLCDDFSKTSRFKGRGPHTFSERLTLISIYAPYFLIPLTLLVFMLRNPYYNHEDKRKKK
Description: For the standard equilibrium assay, the mixtures were incubated for 30 min. at room temperature, then filtered and the radioactivity determined as described above.

5-HT1A receptor = target: T2, 5-HT1A receptor (Rattus norvegicus, UniProt P19327); test: biochemical; assay type: binding; design: 47: 529-540 (1986); from tissue; host or cells: brain tissue, inferred from the cited method (rat frontal cortex)
T2 sequence (P19327 1-422): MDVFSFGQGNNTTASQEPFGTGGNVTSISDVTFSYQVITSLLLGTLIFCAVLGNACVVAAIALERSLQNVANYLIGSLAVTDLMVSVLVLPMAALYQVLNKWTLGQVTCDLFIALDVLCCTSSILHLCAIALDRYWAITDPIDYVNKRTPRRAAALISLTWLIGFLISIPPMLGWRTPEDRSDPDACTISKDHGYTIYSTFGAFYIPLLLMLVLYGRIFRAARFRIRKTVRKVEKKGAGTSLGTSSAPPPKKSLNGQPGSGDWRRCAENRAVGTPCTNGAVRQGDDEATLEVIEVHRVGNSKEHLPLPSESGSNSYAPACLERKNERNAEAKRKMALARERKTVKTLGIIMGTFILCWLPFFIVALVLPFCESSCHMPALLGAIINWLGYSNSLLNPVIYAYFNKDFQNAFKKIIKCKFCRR
Description: Further sigma receptor binding assays against [^3 H]DTG and 5HT-1A binding assays were conducted according to the procedure outlined in the previous examples.

PCP receptor = PCP receptor binding, ^3 H-MK-801; design: species or system rat; details: Table 4
Description: PCP receptor binding assays against ^3 H-MK-801 were conducted as described by Keana et al., Proc. Natl. Acad. Sci (USA) 86: 5631-5635 (1989); Keana et al., Life Sciences 43: 965-973 (1988). For (+) ^3 H-MK-801 binding, 1 nM of radioligand was incubated with about 100 ug of thawed rat brain membrane protein for 4 hr at room temperature. The assays were carried out in 5 mM Tris/acetate and were stopped by rapid filtration through Whatman GF/B or Schleicher & Schuell no. 32 glass fiber filters (presoaked in 0.05% polyethylenamine).

sigma-1 binding site = target: T3, sigma-1 binding site (Cavia porcellus, UniProt Q60492); test: biochemical; design: species or system guinea pig; details: for IC50 ratio of sigma-1/sigma-2 (sigma-1 selective compounds): less than about 0.1, see Table 10
T3 construct: Guinea pig whole membrane preparations (P2 microsomal fraction); from tissue; host or cells: guinea pig membranes (P2 microsomal fraction), as described by Weber et al; brain inferred from the sister test b489
Description: [^3 H]DTG was purchased from DuPont/NEN.
The radioactivity on the filters was determined by scintillation spectrometry at an efficiency of about 50% using Cytoscint (ICN) scintillation fluid.

sigma receptor = test: Sigma receptor binding, [^3 H]DTG, brain membranes (both sigma-1 and sigma-2 sites); design: species or system guinea pig; details: Examples 5 and 6; [^3 H]DTG
[1] = Table 10, read-out: SIGMA-2 KI vs. 3H-DTG + PENTAZOCINE MEAN
[2] = Table 10, read-out: SIGMA-1 KI vs. 3H-PENTAZOCINE MEAN
[3] = Table 13, read-out: Sigma-1 IC50
[4] = Table 12, read-out: IC50 (nM) at sigma-1

T3 sequence (Q60492 whole entry): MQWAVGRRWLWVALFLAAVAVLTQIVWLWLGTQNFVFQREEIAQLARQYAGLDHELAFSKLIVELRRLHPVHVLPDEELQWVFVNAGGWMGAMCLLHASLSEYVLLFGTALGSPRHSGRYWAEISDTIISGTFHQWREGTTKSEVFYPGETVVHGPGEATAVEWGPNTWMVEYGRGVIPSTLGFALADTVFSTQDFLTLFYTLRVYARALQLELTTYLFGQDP

| SMILES | Ki (sigma-2 binding site; [1]) [nM] | IC50 (5-HT1A receptor; Table 5, read-out: 5-HT1A IC50) [nM] | IC50 (PCP receptor) [nM] | Ratio 5-HT1A /σ (5-HT1A receptor; Table 5) | other results |
| --- | --- | --- | --- | --- | --- |
| CC(Cc1ccc2ccccc2c1)NCCCc1ccccc1 (racemic) [Compound 17, (±) N-[1-(2'-Naphthyl)-2-propyl]-3-phenylpropylamine] | 222 | 87.8 | > 10000 |  |  |
| CC(Cc1ccccc1)NCCCCc1ccccc1 (racemic) [Compound 10, (±) N-(1-phenyl-2-propyl)-4-phenylbutylamine] | 53.2 | 212 | > 10000 | 22 | change in sigma-1 affinity vs. compound No. 1, words (sigma-1 binding site; Example 8): doubles affinity; Ki (sigma-1 binding site; [2]): 4.68 nM; S1/S2 Ratio (sigma-1 binding site; Table 10, sigma-1/sigma-2): 0.088; IC50 (sigma-1 binding site; Table 14, read-out: IC50 (nM) at sigma-1): 4.7 nM; IC50 ratio of sigma-1/sigma-2 (sigma-1 selective compounds) (sigma-1 binding site): less than 0.1 |
| CC(Cc1ccc2ccccc2c1)NCCCc1ccccc1 (centres unmarked) [Compound 18, N-(3-phenylpropyl)-1-(2-naphthyl)-2-propylamine] | 15.1 | 588 | > 10000 |  |  |
| C[C@H](Cc1ccccc1)NCCCc1cccc2ccccc12 [Compound 11, R(-) N-(1-phenyl-2-propyl)-3-(1-naphthyl)propylamine] |  | 104 | > 10000 | 11 | reduction in sigma-2 affinity vs. cmp. #1 (sigma-2 binding site; Example 9): about 4 fold; IC50 (sigma-1 binding site; [3]): 8.6 nM |
| CC(Cc1cccc2ccccc12)NCCCc1ccccc1 (racemic) [Compound 16, (±) N-[1-(1'-Naphthyl)-2-propyl]-3-phenylpropylamine] | 152 | 44.8 | > 10000 |  | Ki (sigma-2 binding site; Example 9, read-out: sigma-2 binding affinity): 150 nM |
| CCCC(N)Cc1ccccc1 (racemic) [Compound 34, (±) 1-Phenyl-2-aminopentane] | 10300 | 6650 | > 10000 | 2.6 | Ki (sigma-1 binding site; [2]): 1180 nM; S1/S2 Ratio (sigma-1 binding site; Table 10, sigma-1/sigma-2): 0.115 |
| CC(Cc1ccc(Br)cc1)NCCCc1ccccc1 (racemic) [Compound 21, (±) N-[1-(4'-Bromophenyl)-2-propyl]-3-phenylpropylamine] | 39.1 | 195 | > 10000 |  | IC50 (sigma-2 binding site): 39 nM |
| Clc1cccc(N2CCN(CCc3ccccc3)CC2)c1 [Compound 32, 1-(3'-Chlorophenyl)-4-(2-phenylethyl)piperazine] | 42.4 | 8.73 | > 10000 | .80 | Ki (sigma-1 binding site; [2]): 14.9 nM; S1/S2 Ratio (sigma-1 binding site; Table 10, sigma-1/sigma-2): 0.352 |
| C[C@@H](Cc1ccccc1)NCCCCCc1ccccc1 [Compound 45, N-(5-phenylpentyl)-1-phenyl-2-propylamine] |  |  | > 10000 |  | Ki (sigma-2 binding site; SIGMA-2 KI vs. 3H-DTG + P[…]): 18.5 nM; IC50 (sigma-1 binding site): 0.88 nM; change in sigma-1 affinity vs. compound No. 1, words (sigma-1 binding site): substantially increases affinity; Ki (sigma-1 binding site; SIGMA-1 KI vs. 3H-P[…]): 0.88 nM; S1/S2 Ratio (sigma-1 binding site; guinea pig, microsomes): .048; IC50 (5-HT1A receptor): 594 nM; Ratio 5-HT1A /σ (5-HT1A receptor): 100 |
| C[C@@H](Cc1ccccc1)NCCCCc1ccccc1 [Compound 44, N-(4-phenylbutyl)-1-phenyl-2-propylamine] |  |  | > 10000 |  | Ki (sigma-2 binding site; SIGMA-2 KI vs. 3H-DTG + P[…]): 35.8 nM; Ki (sigma-1 binding site; SIGMA-1 KI vs. 3H-P[…]): 19.4 nM; S1/S2 Ratio (sigma-1 binding site; guinea pig, microsomes): .543; IC50 (5-HT1A receptor): 278 nM; Ratio 5-HT1A /σ (5-HT1A receptor): 40 |
| Clc1ccc(C2=CCN(CCCCc3ccccc3)CC2)cc1 [Compound 38] |  | 107 | > 10000 | 25 |  |
| c1ccc(CCCNC2CCc3ccccc3C2)cc1 (centres unmarked) [Compound 31] |  | 19.3 | > 10000 | .92 |  |
| CCN[C@H](C)Cc1ccccc1 [Compound 4] |  | 4050 | > 10000 | 5.9 |  |
| CC(Cc1cccc(C(F)(F)F)c1)NCCCc1ccccc1 (racemic) [Compound 23, (±) N-[1-(3'-Trifluoromethyl)-2-propyl]-3-phenylpropylamine] | 20.8 | 106 | > 10000 | 25 | IC50 (sigma-2 binding site): 21 nM; Ki (sigma-1 binding site; [2]): 8.75 nM; S1/S2 Ratio (sigma-1 binding site; Table 10, sigma-1/sigma-2): 0.420; IC50 (sigma-1 binding site; [4]): 8.8 nM |
| CC(Cc1cccc(Br)c1)NCCCc1ccccc1 (racemic) [Compound 20, (±) N-[1-(3'-Bromophenyl)-2-propyl]-3-phenylpropylamine] | 26.1 | 108 | > 10000 | 17 | IC50 (sigma-2 binding site): 26 nM; Ki (sigma-1 binding site; [2]): 9.65 nM; S1/S2 Ratio (sigma-1 binding site; Table 10, sigma-1/sigma-2): 0.369; IC50 (sigma-1 binding site; [4]): 9.6 nM |
| C[C@@H](Cc1ccccc1)NCCCc1ccccc1 [Compound 43, N-(3-phenylpropyl)-1-pheny1-2-propylamine] | 37.5 | 1110 | > 10000 |  | 5-HT1A affinity relative to antipode (5-HT1A receptor; S(+) isomer of cmp. #1): only one-tenth the affinity of its antipode |
| CN[C@H](C)Cc1ccccc1 [Compound 3] |  | 1780 | > 10000 |  |  |
| C[C@H](Cc1ccccc1)NCCOc1ccccc1 [Compound 8] |  | 43.6 | > 10000 | .92 | change in sigma receptor affinity vs. analog (sigma receptor): about 7 fold |
| c1ccc(CN2CCOC(c3ccccc3)C2)cc1 (centres unmarked) [Compound 35] |  | 10400 | > 10000 | 40 |  |
| C[C@H](Cc1ccccc1)NCc1ccccc1 [Compound 6] |  | 3780 | > 10000 | 31 |  |
| C[C@H](Cc1ccccc1)NCCCc1ccc2ccccc2c1 [Compound 12, R(-) N-(1-phenyl-2-propyl)-3-(2-naphthyl)propylamine] | 258 | 132 | > 10000 | 56 | reduction in sigma-2 affinity vs. cmp. #1 (sigma-2 binding site; Example 9): about 4 fold; Ki (sigma-1 binding site; [2]): 5.73 nM; S1/S2 Ratio (sigma-1 binding site; Table 10, sigma-1/sigma-2): 0.022; IC50 (sigma-1 binding site; [3]): 5.7 nM; IC50 ratio of sigma-1/sigma-2 (sigma-1 selective compounds) (sigma-1 binding site): less than 0.1 |
| C[C@@H](Cc1ccccc1)NCCc1ccccc1 [Compound 27] |  | 6510 | > 10000 | 200 |  |
| C[C@H](N[C@@H](C)Cc1ccccc1)c1ccccc1 [Compound 26] |  | 10000 | > 10000 | 3.5 |  |
| C[C@H](Cc1ccccc1)NCC#Cc1ccccc1 [Compound 25] |  | 753 | > 10000 | 7.3 |  |
| c1ccc(CCCN2CCN(c3ccccc3)CC2)cc1 [Compound 46] |  | 21.5 | > 10000 | 3 |  |
| C[C@@H](N)Cc1ccc(I)cc1 [Compound 29] |  | 15500 | > 10000 | 3.1 |  |
| CCCN[C@H](C)Cc1ccccc1 [Compound 5] |  | 1500 | > 10000 | .88 |  |
